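All cell lines were grown in 96-well plates and treated with compound for 48 hours. Abbreviation: GI50, concentration required for 50% inhibition of growth.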 Active and inactive are the calls of the source. No stated cut-off is given here; in the data, active = GI50 up to about 1.1 µM and inactive = higher.

Some test systems named below: OVCAR-3; NCI-H23; CCRF-CEM; ACHN; CAKI-1; OVCAR-4; HT-29; T47D; SF-295; HCT-116; K562; NCI/ADR-RES; SK-MEL-2; MOLT-4; HOP-62; OVCAR-8; SF-268; MDA-N; RPMI-8226; LOX IMVI.
What all share (assay): growth of human tumour cells (NCI), 48 h

Take `CS/C(=N\C#N)S/C=C/C(=O)c1ccc(Cl)cc1`: the GI50 with OVCAR-3 was 15.2 µM (inactive); in the test with NCI-H23, 24.9 µM (inactive); with CCRF-CEM, 78.5 µM (inactive); in the test on ACHN it was 34.4 µM (inactive); in the test with CAKI-1, 6.52 µM (inactive); in the test on OVCAR-4, 64.7 µM (inactive). Besides, the GI50 is 21.8 µM (inactive) in the test on HT-29; 25 µM (inactive) in the test with T47D; 29.1 µM (inactive) in the test on SF-295; 18.5 µM (inactive) with HCT-116; 10.5 µM (inactive) with K562; 27.7 µM (inactive) in the test with NCI/ADR-RES. In addition, the GI50 in the test with SK-MEL-2 is 17.6 µM (inactive); with MOLT-4 it was < 0.01 µM (active); in the test on HOP-62 it was 38.2 µM (inactive); with OVCAR-8 it was 20.2 µM (inactive); with SF-268, 22.5 µM (inactive).
Consider `CCN1CC2=C(OC(N)=C(C#N)C2c2ccc(Cl)cc2)/C(=C/c2ccc(Cl)cc2)C1` (configuration not stated), for which the GI50 is 21.8 µM (inactive) in the test on OVCAR-3; 35 µM (inactive) in the test with MDA-N; 22.5 µM (inactive) with NCI-H23; 18.3 µM (inactive) with CCRF-CEM; 15.7 µM (inactive) with ACHN; 10.2 µM (inactive) in the test on CAKI-1. In addition, the GI50 was 32.4 µM (inactive) in the test with OVCAR-4; 38.7 µM (inactive) in the test with HT-29; 18 µM (inactive) with RPMI-8226; 30.1 µM (inactive) in the test on SF-295; 14.1 µM (inactive) in the test with HCT-116; 8.81 µM (inactive) in the test with K562. Besides, the GI50 was 27.3 µM (inactive) with NCI/ADR-RES; 27.6 µM (inactive) with SK-MEL-2; 26.8 µM (inactive) with LOX IMVI; 3.19 µM (inactive) with MOLT-4; 18.2 µM (inactive) in the test on HOP-62; 16.6 µM (inactive) in the test on OVCAR-8. For the same compound, the GI50 in the test on SF-268 is 17.8 µM (inactive).
`N/C(=N\c1ccccc1Cl)c1ccccc1N`: the GI50 with OVCAR-3, in the test on MDA-N, with NCI-H23, in the test with CCRF-CEM, in the test with ACHN and in the test with CAKI-1 was > 100 µM (inactive) in each case. Besides, the GI50 in the test on OVCAR-4, in the test on HT-29, in the test with RPMI-8226, in the test on SF-295, in the test with HCT-116 and in the test with K562 was > 100 µM (inactive) throughout. The GI50 in the test on NCI/ADR-RES, in the test on SK-MEL-2, with LOX IMVI, with MOLT-4, with HOP-62 and with OVCAR-8 was > 100 µM (inactive) in each case. In addition, the GI50 with SF-268 is > 100 µM (inactive).
Take `c1ccc2c(c1)OC(N1CCCC1)c1cnc(N3CCOCC3)nc1-2` (configuration not stated): the GI50 with OVCAR-3 is 34.5 µM (inactive); in the test with NCI-H23, 15.8 µM (inactive); in the test with CCRF-CEM, 31.9 µM (inactive); in the test on ACHN, 38.2 µM (inactive); in the test on CAKI-1 it was 27.8 µM (inactive); with OVCAR-4, 41.6 µM (inactive). Further, the GI50 in the test with HT-29 was 53.6 µM (inactive); with T47D, 3.54 µM (inactive); in the test on RPMI-8226 it was 25.7 µM (inactive); in the test on SF-295, 30.4 µM (inactive); with HCT-116, > 100 µM (inactive); in the test with K562 it was 62.5 µM (inactive). Also, the GI50 with LOX IMVI is 54.3 µM (inactive); in the test with MOLT-4, 32.9 µM (inactive); in the test with HOP-62 it was 57.5 µM (inactive); in the test with OVCAR-8, > 100 µM (inactive); in the test with SF-268 it was 40.6 µM (inactive).

These data come from ChEMBL document CHEMBL1201862, “PubChem BioAssay data set” (2004).
